Data from US11919907B2, “Deuterated JAK inhibitor and uses thereof” (Sun Pharmaceutical Industries, Inc., priority 2020, dated 2024).
Read-outs that look alike come from different tables or passages of the source.

Tests used:
[1] = target: T1, kinase domain of human recombinant JAK1 (Homo sapiens, UniProt P23458); experiment: JAK enzyme biochemical assay (Eurofins CEREP), JAK1; conditions: ATP at Km, 100 nM substrate peptide, 60 minutes, duplicate
T1 construct: using the kinase domains of human recombinant JAK1, JAK2, JAK3 and TYK2
T1 sequence (P23458 875-1153 limits assumed): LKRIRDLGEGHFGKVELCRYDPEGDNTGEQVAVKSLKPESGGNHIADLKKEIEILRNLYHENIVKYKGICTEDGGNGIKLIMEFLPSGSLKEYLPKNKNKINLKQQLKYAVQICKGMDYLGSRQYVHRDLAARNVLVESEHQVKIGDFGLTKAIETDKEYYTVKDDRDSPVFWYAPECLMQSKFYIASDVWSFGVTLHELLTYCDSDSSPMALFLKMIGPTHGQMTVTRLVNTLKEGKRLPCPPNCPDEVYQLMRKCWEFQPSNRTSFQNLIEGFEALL
Experimental: (§1) JAK enzyme biochemical assays were performed at Eurofins CEREP, France using the kinase domains of human recombinant JAK1, JAK2, JAK3 and TYK2. Each enzyme reaction was carried out with Compound 10 (supplied by Concert Pharmaceuticals) or control, JAK enzyme, 100 nM substrate peptide (LANCE® Ultra U-light JAK-1 peptide) and adenosine triphosphate (ATP; concentration at Km) for 60 minutes. Test compounds were dissolved in DMSO and tested in duplicate. It can be seen that Compound 10 had significant potency for inhibition of JAK enzymes.

[2] = target: T2, kinase domain of human recombinant JAK2 (Homo sapiens, UniProt O60674); experiment: JAK enzyme biochemical assay (Eurofins CEREP), JAK2; conditions: ATP at Km, 100 nM substrate peptide, 60 minutes, duplicate
T2 construct: using the kinase domains of human recombinant JAK1, JAK2, JAK3 and TYK2
T2 sequence (O60674 849-1124 limits assumed): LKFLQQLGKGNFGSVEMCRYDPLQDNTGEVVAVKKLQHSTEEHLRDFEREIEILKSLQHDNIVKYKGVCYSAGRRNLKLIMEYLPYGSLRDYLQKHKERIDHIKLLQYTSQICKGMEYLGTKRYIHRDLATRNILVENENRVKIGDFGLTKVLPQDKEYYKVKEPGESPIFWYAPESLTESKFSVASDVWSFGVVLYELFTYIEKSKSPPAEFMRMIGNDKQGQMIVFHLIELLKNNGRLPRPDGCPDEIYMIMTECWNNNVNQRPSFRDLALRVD
Experimental: as §1

[3] = target: T3, kinase domain of human recombinant JAK3 (Homo sapiens, UniProt P52333); experiment: JAK enzyme biochemical assay (Eurofins CEREP), JAK3; conditions: ATP at Km, 100 nM substrate peptide, 60 minutes, duplicate
T3 construct: using the kinase domains of human recombinant JAK1, JAK2, JAK3 and TYK2
T3 sequence (P52333 822-1111 limits assumed): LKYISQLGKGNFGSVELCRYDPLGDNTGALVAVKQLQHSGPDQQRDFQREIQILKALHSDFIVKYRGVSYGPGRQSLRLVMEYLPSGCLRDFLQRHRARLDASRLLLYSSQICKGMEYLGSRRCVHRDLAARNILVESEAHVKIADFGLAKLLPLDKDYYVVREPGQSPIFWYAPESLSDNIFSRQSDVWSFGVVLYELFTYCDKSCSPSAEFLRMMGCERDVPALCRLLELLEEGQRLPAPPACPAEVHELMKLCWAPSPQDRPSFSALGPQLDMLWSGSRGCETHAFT
Experimental: as §1

[4] = target: T4, kinase domain of human recombinant TYK2 (Homo sapiens, UniProt P29597); experiment: JAK enzyme biochemical assay (Eurofins CEREP), TYK2; conditions: ATP at Km, 100 nM substrate peptide, 60 minutes, duplicate
T4 construct: using the kinase domains of human recombinant JAK1, JAK2, JAK3 and TYK2
T4 sequence (P29597 897-1176 limits assumed): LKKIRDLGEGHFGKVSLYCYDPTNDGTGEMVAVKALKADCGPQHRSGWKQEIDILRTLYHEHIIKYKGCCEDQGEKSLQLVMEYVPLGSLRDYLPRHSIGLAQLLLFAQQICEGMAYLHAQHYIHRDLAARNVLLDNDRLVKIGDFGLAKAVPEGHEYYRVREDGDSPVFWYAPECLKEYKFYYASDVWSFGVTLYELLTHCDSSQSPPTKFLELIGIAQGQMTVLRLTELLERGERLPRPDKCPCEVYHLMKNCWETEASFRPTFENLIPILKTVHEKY
Experimental: as §1

[5] = Metabolic stability using human liver microsomes; format: in vitro ADME; conditions: for half-life at 0.25 μM: human
Experimental: Materials: Human liver microsomes (20 mg/mL) were obtained from Xenotech, LLC (Lenexa, Kans.). β-nicotinamide adenine dinucleotide phosphate, reduced form (NADPH), magnesium chloride (MgCl2), and dimethyl sulfoxide (DMSO) were purchased from Sigma-Aldrich. Compound 10 and non-deuterated Compound 50 as test compounds were supplied by Concert Pharmaceuticals:
Determination of Metabolic Stability: 7.5 mM stock solutions of test compounds were prepared in DMSO. The 7.5 mM stock solutions were diluted to 12.5 μM in acetonitrile (ACN). The human liver microsomes were diluted in 0.1 M potassium phosphate buffer, pH 7.4, containing 3 mM MgCl2. The diluted microsomes were added to wells of a 96-well deep-well polypropylene plate in triplicate. A 10 μL aliquot of the 12.5 μM test compound was added to the microsomes and the mixture was pre-warmed for 10 minutes. Reactions were initiated by addition of pre-warmed NADPH solution. The final reaction volume was 0.5 mL and contained […] human liver microsomes, 0.25 μM test compound, and 2 mM NADPH in 0.1 M potassium phosphate buffer, pH 7.4, and 3 mM MgCl2. The reaction mixtures were incubated at 37° C., and 50 μL aliquots were removed at 0, 10, 20, 30, 45, and 60 minutes and added to shallow-well 96-well plates which contained 50 μL of ice-cold ACN with internal standard to stop the reactions. The plates were stored at 4° C. for 20 minutes after which 100 μL of water was added to the wells of the plate before centrifugation to pellet precipitated proteins. Supernatants were transferred to another 96-well plate and analyzed for amounts of parent remaining by LC-MS/MS using an Applied Bio-systems mass spectrometer.
Data analysis: The in vitro t1/2s for test compounds were calculated from the slopes of the linear regression of % parent remaining (ln) vs incubation time relationship. in vitro t1/2=0.693/k k=−[slope of linear regression of % parent remaining(ln) vs incubation time] Data analysis was performed using Microsoft Excel Software.

[6] = pH 7.4, 5 mg/mL human liver microsomes, 0.25 μM test compound, 2 mM NADPH, 37° C., experiment 2498, read-out: t1/2 EXP# 2498
[7] = pH 7.4, 5 mg/mL human liver microsomes, 0.25 μM test compound, 2 mM NADPH, 37° C., experiment 2500, read-out: t1/2 EXP# 2500
[8] = pH 7.4, 5 mg/mL human liver microsomes, 0.25 μM test compound, 2 mM NADPH, 37° C., experiment 2501, read-out: t1/2 EXP# 2501
[9] = pH 7.4, human liver microsomes, average of EXP# 2498, 2500, 2501, read-out: t1/2 Average

IC50 [1] [nM] | IC50 [2] [nM] | IC50 [3] [nM] | IC50 [4] [nM] | Average % diff. in t1/2 (longer half-life than non-deuterated Compound 50) ([5]; Compound 10 versus Compound 50, average t1/2) [%] | half-life at 0.25 μM [5, 6] [h] | half-life at 0.25 μM [5, 7] [h] | half-life at 0.25 μM [5, 8] [h] | half-life at 0.25 μM [5, 9] [h] | Compound
63.9 | 34 | 226 | 368 | 176 | 1.6 | 4.5 | 4.97 | 3.68 | [2H]C1([2H])C([C@@H](CC(N)=O)n2cc(-c3ncnc4[nH]ccc34)cn2)C([2H])([2H])C([2H])([2H])C1([2H])[2H] [Compound 10]
– | – | – | – | – | 0.822 | 1.33 | 1.87 | 1.33 | NC(=O)C[C@H](C1CCCC1)n1cc(-c2ncnc3[nH]ccc23)cn1 [Compound 50, reference compound]
